Experimental data as given in publication PMC8911723, “Design, Synthesis, and Cytotoxic Activity of Novel Natural Arylsulfonamide-Inspired Molecules” (Molecules, 2022).
Values after ≈ are worked out from the molar mass of the structure shown.

Columns and labels:
[1] = MTT in vitro cytotoxicity assay, MARC145 cells; type: cell-based, African green monkey; details: MARC145 kidney cells (subclone of MA-104); MARC145 African green monkey kidney cell line; MTT assay; triplicate, three independent experiments
Description: (§1) Pharmacological evaluation: All target carboxamide derivatives derived from natural arylsulfonamides 10a–r were screened for their potential in vitro cytotoxic effects on A875 (human melanoma), HepG2 (human hepatocellular liver carcinoma), and MARC145 (A subclone of African green monkey kidney cell line MA-104) cell lines using the standard MTT assay, with 5-FU (5-fluorouracil) as a positive control. The IC50 value represents the drug concentration required to inhibit cell growth by 50%.
(§2) Bioassays: The in vitro cytotoxicity of the novel carbazole derivatives against human melanoma (A875), human hepatocellular liver carcinoma (HepG2), and a subclone of African green monkey kidney cell line MA-104 (MARC145) cell lines was evaluated using the MTT assay. All data were analyzed with SPSS software, and the 50% inhibitory concentrations (IC50) of each compound for the different cell lines were determined. All assays were performed in triplicate on three independent experiments.

[2] = MTT in vitro cytotoxicity assay, HepG2 cells; type: cell-based, human; details: HepG2 hepatocellular liver carcinoma cells; HepG2 human hepatocellular liver carcinoma cell line; MTT assay; triplicate, three independent experiments
Description: as §1, §2

[3] = MTT in vitro cytotoxicity assay, A875 cells; type: cell-based; details: A875 melanoma cells, A875 human melanoma cell line, triplicate, three independent experiments
Description: as §1, §2

[4] = test system: MARC145 (a subclone of African green monkey kidney cell line MA-104); assay: MTT in vitro cytotoxicity assay, MARC145 cells; type: cell-based; details: MARC145 cells; concentration 40 µg/mL; preliminary screening (Figure 4)
Description: as §1, §2

[5] = test system: HepG2 (human hepatocellular liver carcinoma) cell line; assay: MTT in vitro cytotoxicity assay, HepG2 cells; type: cell-based; details: HepG2 cells; concentration 40 µg/mL; preliminary screening (Figure 4)
Description: as §1, §2

Structure (SMILES)	IC50 [1] [µg/mL]	IC50 [2] [µg/mL]	IC50 [3] [µg/mL]	melting point [°C]	Inhibitory activity at 40 µg/mL compared with control 5-FU [4]	Inhibitory activity at 40 µg/mL compared with control 5-FU [5]
O=c1[nH]cc(F)c(=O)[nH]1 [5-FU, 5-fluorouracil, reference compound]	13.1 ± 1.32 (≈ 100 µM)	15.1 ± 1.06 (≈ 116 µM)	11.8 ± 2.03 (≈ 90.4 µM)	–	–	–
O=C(Nc1ccc(S(=O)(=O)Nc2ccccc2-c2ccccc2)cc1)c1ccccc1C(F)(F)F [10a, N-(4-(N-([1,1′-Biphenyl]-2-yl)sulfamoyl)phenyl)-2-(trifluoromethyl)benzamide]	13.2 ± 2.49 (≈ 26.5 µM)	22.1 ± 3.99 (≈ 44.4 µM)	> 40	–	–	–
O=C(Nc1ccc(S(=O)(=O)Nc2ccccc2Oc2ccccc2)cc1)c1ccccc1C(F)(F)F [10b, N-(4-(N-(2-Phenoxyphenyl)sulfamoyl)phenyl)-2-(trifluoromethyl)benzamide]	> 40	> 40	> 40	–	–	–
Cc1onc(NS(=O)(=O)c2ccc(NC(=O)c3ccccc3C(F)(F)F)cc2)c1C [10c, N-(4-(N-(4,5-Dimethylisoxazol-3-yl)sulfamoyl)phenyl)-2-(trifluoromethyl)benzamide]	> 40	> 40	> 40	183 to 184	–	–
O=C(Nc1ccc(S(=O)(=O)Nc2ccccc2C(F)(F)F)cc1)c1ccccc1C(F)(F)F [10d, 2-(Trifluoromethyl)-N-(4-(N-(2-(trifluoromethyl)phenyl)sulfamoyl)phenyl)benzamide]	24.9 ± 4.45 (≈ 51 µM)	33.1 ± 2.13 (≈ 67.7 µM)	> 40	–	–	–
O=C(Nc1ccc(S(=O)(=O)Nc2ccccc2-c2ccccc2)cc1)c1cc(Br)nn1-c1ncccc1Cl [10e, N-(4-(N-([1,1′-Biphenyl]-2-yl)sulfamoyl)phenyl)-3-bromo-1-(3-chloropyridin-2-yl)-1H-pyrazole-5-carboxamide]	> 40	> 40	> 40	156 to 157	–	–
O=C(Nc1ccc(S(=O)(=O)Nc2ccccc2Oc2ccccc2)cc1)c1cc(Br)nn1-c1ncccc1Cl [10f, 3-Bromo-1-(3-chloropyridin-2-yl)-N-(4-(N-(2-phenoxyphenyl)sulfamoyl)phenyl)-1H-pyrazole-5-carboxamide]	11.8 ± 2.93 (≈ 18.9 µM)	> 40	> 40	177 to 178	–	–
Cc1onc(NS(=O)(=O)c2ccc(NC(=O)c3cc(Br)nn3-c3ncccc3Cl)cc2)c1C [10g, 3-Bromo-1-(3-chloropyridin-2-yl)-N-(4-(N-(4,5-dimethylisoxazol-3-yl)sulfamoyl)phenyl)-1H-pyrazole-5-carboxmide]	> 40	> 40	> 40	171 to 172	–	–
O=C(Nc1ccc(S(=O)(=O)Nc2ccccc2C(F)(F)F)cc1)c1cc(Br)nn1-c1ncccc1Cl [10h, 3-Bromo-1-(3-chloropyridin-2-yl)-N-(4-(N-(2-(trifluoromethyl)phenyl)sulfamoyl)phenyl)-1H-pyrazole-5-carboxamide]	6.75 ± 0.89 (≈ 11.2 µM)	14.4 ± 1.89 (≈ 23.9 µM)	16.8 ± 1.14 (≈ 27.9 µM)	181 to 182	–	–
Cc1c(C(=O)Nc2ccc(S(=O)(=O)Nc3ccccc3-c3ccccc3)cc2)cccc1-c1ccccc1 [10i, N-(4-(N-([1,1′-Biphenyl]-2-yl)sulfamoyl)phenyl)-2-methyl-[1,1′-biphenyl]-3-carboxamide]	> 40	> 40	> 40	–	–	–
Cc1c(C(=O)Nc2ccc(S(=O)(=O)Nc3ccccc3Oc3ccccc3)cc2)cccc1-c1ccccc1 [10j, 2-Methyl-N-(4-(N-(2-phenoxyphenyl)sulfamoyl)phenyl)-[1,1′-biphenyl]-3-carboxamide]	> 40	> 40	> 40	–	–	–
Cc1onc(NS(=O)(=O)c2ccc(NC(=O)c3cccc(-c4ccccc4)c3C)cc2)c1C [10k, N-(4-(N-(4,5-Dimethylisoxazol-3-yl)sulfamoyl)phenyl)-2-methyl-[1,1′-biphenyl]-3-carboxamide]	> 40	34.7 ± 2.94 (≈ 75.2 µM)	> 40	156 to 157	–	–
Cc1c(C(=O)Nc2ccc(S(=O)(=O)Nc3ccccc3C(F)(F)F)cc2)cccc1-c1ccccc1 [10l, 2-Methyl-N-(4-(N-(2-(trifluoromethyl)phenyl)sulfamoyl)phenyl)-[1,1′-biphenyl]-3-carboxamide]	5.62 ± 0.98 (≈ 11 µM)	9.03 ± 1.49 (≈ 17.7 µM)	10.8 ± 2.28 (≈ 21.1 µM)	–	significantly higher activities compared with the control	significantly higher activities compared with the control
O=C(Nc1ccc(S(=O)(=O)Nc2ccccc2-c2ccccc2)cc1)c1ccccc1-c1ccc(C(F)(F)F)cc1 [10m, N-(4-(N-([1,1′-Biphenyl]-2-yl)sulfamoyl)phenyl)-4′-(trifluoromethyl)-[1,1′-biphenyl]-2-carboxamide]	> 40	> 40	> 40	163 to 164	–	–
O=C(Nc1ccc(S(=O)(=O)Nc2ccccc2Oc2ccccc2)cc1)c1ccccc1-c1ccc(C(F)(F)F)cc1 [10n, N-(4-(N-(2-Phenoxyphenyl)sulfamoyl)phenyl)-4′-(trifluoromethyl)-[1,1′-biphenyl]-2-carboxamide]	22.6 ± 2.78 (≈ 38.3 µM)	> 40	> 40	173 to 174	–	–
Cc1onc(NS(=O)(=O)c2ccc(NC(=O)c3ccccc3-c3ccc(C(F)(F)F)cc3)cc2)c1C [10o, N-(4-(N-(4,5-Dimethylisoxazol-3-yl)sulfamoyl)phenyl)-4′-(trifluoromethyl)-[1,1′-biphenyl]-2-carboxamide]	> 40	> 40	> 40	199 to 200	–	–
O=C(Nc1ccc(S(=O)(=O)Nc2ccccc2C(F)(F)F)cc1)c1ccccc1-c1ccc(C(F)(F)F)cc1 [10p, 4′-(Trifluoromethyl)-N-(4-(N-(2-(trifluoromethyl)phenyl)sulfamoyl)phenyl)-[1,1′-biphenyl]-2-carboxamide]	8.5 ± 2.55 (≈ 15.1 µM)	9.6 ± 0.88 (≈ 17 µM)	20.4 ± 3.99 (≈ 36.2 µM)	–	significantly higher activities compared with the control	significantly higher activities compared with the control
CC(C(=O)Nc1ccc(S(=O)(=O)Nc2ccccc2C(F)(F)F)cc1)c1ccc2c(c1)[nH]c1ccc(Cl)cc12 (stereo not drawn) [10q, 2-(6-Chloro-9H-carbazol-2-yl)-N-(4-(N-(2-(trifluoromethyl)phenyl)sulfamoyl)phenyl)propanamide]	2.95 ± 0.78 (≈ 5.16 µM)	3.55 ± 0.63 (≈ 6.21 µM)	4.19 ± 0.78 (≈ 7.33 µM)	159 to 160	significantly higher activities compared with the control	significantly higher activities compared with the control
CC(C(=O)Nc1ccc(S(=O)(=O)Nc2ccccc2Oc2ccccc2)cc1)c1ccc2c(c1)[nH]c1ccc(Cl)cc12 (stereo not drawn) [10r, 2-(6-Chloro-9H-carbazol-2-yl)-N-(4-(N-(2-phenoxyphenyl)sulfamoyl)phenyl)propanamide]	5.96 ± 1.33 (≈ 10 µM)	8.84 ± 1.68 (≈ 14.8 µM)	15.2 ± 2.4 (≈ 25.4 µM)	166 to 167	significantly higher activities compared with the control	significantly higher activities compared with the control
O=C(O)c1ccccc1NS(=O)(=O)c1ccc(-c2ccccc2)cc1 [NC1, 2-([1,1′-Biphenyl]-4-sulfonamido)benzoic acid]	25.8 ± 10.4 (≈ 73 µM)	–	27.2 ± 5.39 (≈ 76.9 µM)	205 to 207	–	–
COC(=O)c1ccccc1NC(=O)c1ccccc1NS(=O)(=O)c1ccc(-c2ccccc2)cc1 [NC2, Methyl 2-(2-([1,1′-biphenyl]-4-sulfonamido)benzamido)benzoate]	> 40	–	> 40	–	–	–
